Paper PMC10004634 (PLOS ONE, 2023)
Where a chain is given by its changes, count along the chain named. Like-named read-outs stand apart in the source and are kept apart here.

Experiments:
Assay in all cases: biochemical
Set-up in all cases: KINOMEscan scanMAX competition binding, DNA-tagged kinases, qPCR read-out, percent control at 300 nM
FGR = FGR (Homo sapiens, UniProt P09769)
FLT3(N841I) = molecular target: T1, FLT3(N841I) (Homo sapiens, UniProt P36888, N841I)
T1 sequence (P36888 1-993 N841I): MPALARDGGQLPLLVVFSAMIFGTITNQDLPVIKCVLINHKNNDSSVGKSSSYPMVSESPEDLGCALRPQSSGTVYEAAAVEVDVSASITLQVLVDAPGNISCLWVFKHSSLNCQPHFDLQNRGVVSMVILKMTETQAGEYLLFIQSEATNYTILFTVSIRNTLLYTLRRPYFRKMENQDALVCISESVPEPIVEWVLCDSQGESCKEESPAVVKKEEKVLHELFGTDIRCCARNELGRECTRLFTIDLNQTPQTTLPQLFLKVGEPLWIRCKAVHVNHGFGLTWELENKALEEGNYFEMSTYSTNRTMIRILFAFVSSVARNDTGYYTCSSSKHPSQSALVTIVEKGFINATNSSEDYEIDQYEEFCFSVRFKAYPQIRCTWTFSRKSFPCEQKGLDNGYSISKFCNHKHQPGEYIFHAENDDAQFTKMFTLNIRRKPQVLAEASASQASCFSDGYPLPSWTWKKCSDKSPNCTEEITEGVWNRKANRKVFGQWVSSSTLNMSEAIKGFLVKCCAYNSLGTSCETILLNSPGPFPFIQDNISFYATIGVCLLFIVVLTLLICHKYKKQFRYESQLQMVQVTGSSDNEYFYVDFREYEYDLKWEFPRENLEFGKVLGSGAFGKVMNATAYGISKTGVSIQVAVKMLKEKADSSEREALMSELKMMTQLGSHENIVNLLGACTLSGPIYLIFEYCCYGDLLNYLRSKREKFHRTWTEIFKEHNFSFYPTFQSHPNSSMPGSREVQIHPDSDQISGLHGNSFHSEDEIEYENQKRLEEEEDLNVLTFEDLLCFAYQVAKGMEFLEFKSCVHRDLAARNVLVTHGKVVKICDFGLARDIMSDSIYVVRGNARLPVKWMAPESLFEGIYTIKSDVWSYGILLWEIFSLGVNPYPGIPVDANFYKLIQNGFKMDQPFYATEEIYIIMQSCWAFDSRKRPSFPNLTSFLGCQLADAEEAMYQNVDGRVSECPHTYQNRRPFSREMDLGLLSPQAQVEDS

KIT(V559D) = KIT(V559D) (Homo sapiens, UniProt P10721, V559D)
PDGFRB = PDGFRB (Homo sapiens, UniProt P09619)
PIP5K2C = molecular target: T2, PIP5K2C (Homo sapiens, UniProt Q8TBX8)
T2 construct: gene PIP4K2C
T2 sequence (Q8TBX8 1-421): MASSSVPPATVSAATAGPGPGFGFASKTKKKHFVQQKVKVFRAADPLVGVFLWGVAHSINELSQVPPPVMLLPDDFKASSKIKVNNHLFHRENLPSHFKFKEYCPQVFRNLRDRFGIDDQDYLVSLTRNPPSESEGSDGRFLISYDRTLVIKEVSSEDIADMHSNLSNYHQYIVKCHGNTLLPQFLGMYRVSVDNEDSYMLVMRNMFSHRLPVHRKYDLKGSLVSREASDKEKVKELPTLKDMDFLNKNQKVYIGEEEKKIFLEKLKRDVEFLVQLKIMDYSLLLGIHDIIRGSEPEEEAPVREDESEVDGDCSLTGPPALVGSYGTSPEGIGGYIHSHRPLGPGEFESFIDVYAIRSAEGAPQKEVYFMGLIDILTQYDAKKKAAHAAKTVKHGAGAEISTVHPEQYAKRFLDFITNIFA

FLT3(R834Q) = molecular target: T3, FLT3(R834Q) (Homo sapiens, UniProt P36888, R834Q)
T3 sequence (P36888 1-993 R834Q): T1 sequence (P36888 1-993 N841I) with R834Q, I841N

[1] = read-out: Percent control / Acalabrutinib
[2] = read-out: Percent control / Ibrutinib
[3] = read-out: Percent control / Tirabrutinib
[4] = read-out: Percent control / Zanubrutinib

Chain of PDGFRB (P09619 whole entry): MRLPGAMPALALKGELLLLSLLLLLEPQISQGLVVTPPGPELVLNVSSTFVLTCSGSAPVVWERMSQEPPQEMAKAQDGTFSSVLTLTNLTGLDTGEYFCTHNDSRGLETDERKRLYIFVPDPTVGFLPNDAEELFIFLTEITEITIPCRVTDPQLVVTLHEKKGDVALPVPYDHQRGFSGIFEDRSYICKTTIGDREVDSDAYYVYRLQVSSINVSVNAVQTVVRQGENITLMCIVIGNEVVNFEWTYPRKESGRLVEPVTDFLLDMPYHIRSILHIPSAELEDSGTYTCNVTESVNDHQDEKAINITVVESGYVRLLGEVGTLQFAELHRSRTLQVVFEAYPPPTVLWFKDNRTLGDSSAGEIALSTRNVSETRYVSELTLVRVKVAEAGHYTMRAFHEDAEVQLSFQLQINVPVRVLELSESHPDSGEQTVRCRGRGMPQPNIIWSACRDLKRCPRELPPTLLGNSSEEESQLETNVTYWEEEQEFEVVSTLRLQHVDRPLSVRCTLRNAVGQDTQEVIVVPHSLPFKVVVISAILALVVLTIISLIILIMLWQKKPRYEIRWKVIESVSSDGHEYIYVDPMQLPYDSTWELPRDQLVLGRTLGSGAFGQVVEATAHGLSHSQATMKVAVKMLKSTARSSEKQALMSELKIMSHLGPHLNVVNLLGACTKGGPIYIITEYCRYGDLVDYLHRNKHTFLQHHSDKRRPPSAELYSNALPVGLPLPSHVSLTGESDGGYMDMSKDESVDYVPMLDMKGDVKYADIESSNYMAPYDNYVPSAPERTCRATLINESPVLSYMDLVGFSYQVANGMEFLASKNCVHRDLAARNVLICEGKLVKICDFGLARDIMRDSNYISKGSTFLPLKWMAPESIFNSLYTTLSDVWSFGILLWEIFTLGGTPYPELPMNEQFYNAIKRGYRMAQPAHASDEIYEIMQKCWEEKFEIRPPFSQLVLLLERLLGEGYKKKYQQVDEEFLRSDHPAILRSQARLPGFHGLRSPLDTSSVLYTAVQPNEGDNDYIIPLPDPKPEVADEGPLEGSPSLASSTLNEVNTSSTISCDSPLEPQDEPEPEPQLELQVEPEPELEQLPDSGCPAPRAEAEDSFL
Chain of KIT(V559D) (P10721 whole entry V559D): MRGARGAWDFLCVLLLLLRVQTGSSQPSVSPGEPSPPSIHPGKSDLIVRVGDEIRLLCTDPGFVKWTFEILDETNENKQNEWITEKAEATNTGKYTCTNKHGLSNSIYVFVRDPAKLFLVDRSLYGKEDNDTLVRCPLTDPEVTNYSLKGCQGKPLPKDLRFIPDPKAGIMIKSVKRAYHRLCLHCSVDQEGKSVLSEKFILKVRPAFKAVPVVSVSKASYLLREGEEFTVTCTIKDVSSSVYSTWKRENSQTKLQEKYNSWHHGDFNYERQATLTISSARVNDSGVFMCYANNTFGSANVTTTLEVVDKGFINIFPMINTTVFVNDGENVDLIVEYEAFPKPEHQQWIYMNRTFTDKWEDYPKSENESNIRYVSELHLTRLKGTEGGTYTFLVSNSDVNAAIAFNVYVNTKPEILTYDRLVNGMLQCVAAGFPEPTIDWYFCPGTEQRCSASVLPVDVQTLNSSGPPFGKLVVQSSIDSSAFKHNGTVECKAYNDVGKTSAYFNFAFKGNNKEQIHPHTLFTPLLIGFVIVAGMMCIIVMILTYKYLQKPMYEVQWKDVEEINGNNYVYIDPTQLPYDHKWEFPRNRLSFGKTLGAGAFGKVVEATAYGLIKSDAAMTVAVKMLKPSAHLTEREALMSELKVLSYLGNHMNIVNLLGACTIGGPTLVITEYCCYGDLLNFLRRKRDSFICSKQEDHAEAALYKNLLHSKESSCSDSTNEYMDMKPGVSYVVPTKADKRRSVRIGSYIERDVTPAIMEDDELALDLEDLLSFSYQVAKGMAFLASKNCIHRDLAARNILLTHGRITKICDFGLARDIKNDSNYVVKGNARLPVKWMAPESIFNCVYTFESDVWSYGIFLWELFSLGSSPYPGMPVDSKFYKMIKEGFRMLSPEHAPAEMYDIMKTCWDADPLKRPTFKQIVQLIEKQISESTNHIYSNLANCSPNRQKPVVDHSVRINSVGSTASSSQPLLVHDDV
Chain of FGR (P09769 whole entry): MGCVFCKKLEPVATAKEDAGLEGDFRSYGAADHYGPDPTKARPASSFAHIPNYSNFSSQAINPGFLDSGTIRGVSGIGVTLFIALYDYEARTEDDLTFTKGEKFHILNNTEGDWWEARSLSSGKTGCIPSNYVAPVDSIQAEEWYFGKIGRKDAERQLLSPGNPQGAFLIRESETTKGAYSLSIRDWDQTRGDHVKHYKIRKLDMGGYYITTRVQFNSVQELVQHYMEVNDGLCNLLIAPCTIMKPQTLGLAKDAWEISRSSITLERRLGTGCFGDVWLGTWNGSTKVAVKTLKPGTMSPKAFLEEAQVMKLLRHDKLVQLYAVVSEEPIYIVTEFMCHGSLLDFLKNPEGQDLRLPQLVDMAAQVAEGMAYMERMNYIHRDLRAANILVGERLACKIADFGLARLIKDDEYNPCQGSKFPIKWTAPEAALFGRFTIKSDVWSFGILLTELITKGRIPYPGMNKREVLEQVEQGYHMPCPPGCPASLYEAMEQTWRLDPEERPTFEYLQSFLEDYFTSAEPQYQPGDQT

`CC#CC(=O)N1CCC[C@H]1c1nc(-c2ccc(C(=O)Nc3ccccn3)cc2)c2c(N)nccn12` [Acalabrutinib] gave a remaining binding at 0.3 µM (FGR; [1]) of 94%, a remaining binding at 0.3 µM (FLT3(N841I); [1]) of 85% and a remaining binding at 0.3 µM (KIT(V559D); [1]) of 84%. The remaining binding at 0.3 µM (PDGFRB; [1]) was 93% and the remaining binding at 0.3 µM (PIP5K2C; [1]) was 90%.
`C=CC(=O)N1CCC[C@@H](n2nc(-c3ccc(Oc4ccccc4)cc3)c3c(N)ncnc32)C1` [Ibrutinib] showed a remaining binding at 0.3 µM (FGR; [2]) of 8.6%, a remaining binding at 0.3 µM (FLT3(N841I); [2]) of 39% and a remaining binding at 0.3 µM (FLT3(R834Q); [2]) of 55%. It also gave a remaining binding at 0.3 µM (KIT(V559D); [2]) of 55%, a remaining binding at 0.3 µM (PDGFRB; [2]) of 38% and a remaining binding at 0.3 µM (PIP5K2C; [2]) of 81%.
Compound `CC#CC(=O)N1CC[C@@H](n2c(=O)n(-c3ccc(Oc4ccccc4)cc3)c3c(N)ncnc32)C1` [Tirabrutinib] has a remaining binding at 0.3 µM (FLT3(R834Q); [3]) of 81% and a remaining binding at 0.3 µM (PDGFRB; [3]) of 79%.
For `C=CC(=O)N1CCC([C@@H]2CCNc3c(C(N)=O)c(-c4ccc(Oc5ccccc5)cc4)nn32)CC1` [Zanubrutinib], the remaining binding at 0.3 µM (FGR; [4]) was 66%, the remaining binding at 0.3 µM (FLT3(N841I); [4]) was 100% and the remaining binding at 0.3 µM (FLT3(R834Q); [4]) was 93%. For the same compound, the remaining binding at 0.3 µM (KIT(V559D); [4]) was 87%, the remaining binding at 0.3 µM (PDGFRB; [4]) was 100% and the remaining binding at 0.3 µM (PIP5K2C; [4]) was 92%.
